The record followed here is US5476847A, “Derivatives of phosphinic acid useful as endothelin converting enzyme inhibitors” (priority 1994, dated 1995).

pIC50: −log10 of the molar value.

One assay has as its target T1, ECE (Cavia porcellus, UniProt P97739).
T1 construct: tissue Keystone Biologicals, Cleveland, Ohio; host or cells: frozen guinea pig lungs; lubrol PX-treated lung membranes
T1 sequence (P97739 1-754): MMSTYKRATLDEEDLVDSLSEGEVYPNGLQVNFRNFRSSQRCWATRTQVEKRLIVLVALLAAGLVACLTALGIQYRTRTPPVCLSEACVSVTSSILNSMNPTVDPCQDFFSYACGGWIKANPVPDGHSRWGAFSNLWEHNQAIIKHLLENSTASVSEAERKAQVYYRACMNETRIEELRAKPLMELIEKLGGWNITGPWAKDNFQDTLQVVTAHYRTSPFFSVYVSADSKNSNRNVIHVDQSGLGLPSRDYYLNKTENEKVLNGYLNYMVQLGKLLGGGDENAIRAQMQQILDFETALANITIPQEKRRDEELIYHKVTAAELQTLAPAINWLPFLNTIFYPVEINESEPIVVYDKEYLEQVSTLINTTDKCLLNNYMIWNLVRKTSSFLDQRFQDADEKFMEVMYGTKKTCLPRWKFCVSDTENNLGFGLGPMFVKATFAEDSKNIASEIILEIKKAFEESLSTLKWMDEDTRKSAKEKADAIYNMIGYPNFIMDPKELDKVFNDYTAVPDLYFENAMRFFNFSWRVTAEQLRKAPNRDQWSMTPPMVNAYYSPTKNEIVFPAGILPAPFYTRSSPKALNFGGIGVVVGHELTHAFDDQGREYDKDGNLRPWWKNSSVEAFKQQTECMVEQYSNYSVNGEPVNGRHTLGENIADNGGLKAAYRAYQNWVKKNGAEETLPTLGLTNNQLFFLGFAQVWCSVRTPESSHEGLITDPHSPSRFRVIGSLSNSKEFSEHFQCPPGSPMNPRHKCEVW
Briefly: In vitro ECE assay (inhibition of [125I]BET-1 to [125I]ET-1 conversion, lubrol-treated guinea pig lung membrane). It is filed as biochemical. As to conditions: L-GPLGM, 2 h preincubation at 4° C., 500 pM [125I]BET-1, table of examples, read-out: ECE IC50. An excerpt:
The ECE assay is based on the quantitative determination of [^125 l]ET-1 released from [^125 l]BET-1 labeled on Tyrosine-13 by binding to the membrane-bound ET receptor. […] GPLGM was also found to contain a high density of ET receptors. Thus, this preparation was utilized as a source of both ECE and a saturating concentration of ET receptors for the quantitative determination of [251l]ET-1 from the conversion of [125l ]BET-1. Under selected experimental conditions of the ECE assay, specific [125l]ET-1 bound was directly related to ECE activity. Assays were carried out in the presence of varying concentrations of test compounds to evaluate their efficacy in inhibiting ECE activity.
Frozen guinea pig lungs (Keystone Biologicals,Cleveland, Ohio) are weighed and homogenized in 10 times gram tissue weight of solution A (50 mM Tris-HCl, pH 7.4, 0.25M sucrose, and 2 mM EDTA) using a Polytron tissue homogenizer (probe PTA-20S). Homogenization is repeated four times at speed setting seven each for 10 s and with 5-8 min intervals on ice in between homogenization. Homogenates are spun for 30 min at 2000 g (4100 rpm in an SS34 rotor or 3800 rpm in an SA-600 rotor). Supernatants containing membranes are carefully decanted and saved. Pellets are rehomogenized in solution A as described, and homogenates are spun at 2000 g for 30 min. Supernatants are removed, mixed with the supernatants from the first spin, and spun at 37000 rpm in a 45 Ti rotor (107022 g) for 60 min. Pellets containing membranes are suspended in solution B (10 mM Tris-HCl, pH 7.4, and 0.125M sucrose) using a Dounce homogenizer. Samples are divided into 1 ml fractions, rapidly frozen in a dry ice methanol bath, and stored at -80° C. All steps are carried out at 4° C.
GPLGM fractions prepared as described above are thawed and resuspended at a concentration of 1 mg membrane protein/mL in a solution containing 0.06% lubrol PX, 50 mM Tris-HCl (pH 7.4), and 100 mM NaCl. Stir the mixture for 1 h and then spin for 1 h at 37000 rpm in a 45 Ti rotor (107022 g). Discard the supernatants and resuspend the pellets in a solution containing 50 mM Tris-HCl (pH 7.4), and 100 mM NaCl using a Dounce homogenizer, and adjust the final volume to half the original volume. Spin the homogenates for 1 h at 37000 rpm in a 45 Ti rotor (107022 g). Suspend the membrane pellets in solution B and treat as described above. All steps are performed at 4° C.
ECE Assay: Samples of L-GPLGM containing 20 μg protein are incubated in a solution containing 100 mM Tris-HCl (pH 7), 100 mM NaCl, and 5 mg/ml BSA (Fraction V, 98-99% albumin) (Sigma Chemical Co.) at a final reaction volume of 100 μL. The ECE assay is initiated by the addition of [^125 l]BET-1 to obtain a final concentration of 500 pM. Reactions are carried out for 30 min at 37° C. Reactions are terminated by addition of 4 mL of solution C (10 mM Tris-HCl, pH 7.4, and 150 mM NaCl) at 4° C. followed by rapid filtration on Whatman GF/B glass microfiber filters. Filters are presoaked for 1 h at 4° C. in a solution containing 50 mM Tris-HCl (pH 7.4), 10 mg/mL BSA, and 0.1% sodium azide. Wash test tubes and filters four times with 4 mL of solution C at 4° C., and count radioactivity retained on the filters in a γ counter. Non-specific binding is determined in the presence of 1 μM of unlabeled ET-1 (Peninsula Laboratories, Inc., Belmont, Calif.) in the reaction mixture. All reactions are performed in duplicate.
To test the effect of test compounds on ECE activity, ECE assays are carried out in the presence of varying concentrations of the compounds. Assays are initiated following a 2 h incubation of L-GPLGM with the compound at 4° C. ECE activity in the presence of compounds is expressed as a percentage of control ECE activity of the membrane preparation, which is determined simultaneously.
On to `CC(C)CC(CP(=O)(O)C(Cc1ccc2ccccc2c1)NC(=O)[C@H](CCCCNC(=O)OCc1ccccc1)NS(C)(=O)=O)C(=O)N[C@@H](Cc1c[nH]c2ccccc12)C(=O)O` (single isomer, unassigned) [Example 9B], for which the pIC50 is 5.35. The same measure, in the same setting: under `CC(C)C(CP(=O)(O)C(Cc1ccccc1)NC(=O)[C@H](CCC(N)=O)NC(=O)OCc1ccccc1)C(=O)N[C@@H](Cc1c[nH]c2ccccc12)C(=O)O` (stereo partly drawn) [Example 10C] stands 6.70. Same read-out and setting: next, `CS(=O)(=O)N[C@@H](CCCCNC(=O)OCc1ccccc1)C(=O)NC(Cc1ccc2ccccc2c1)P(=O)(O)CC1(C(=O)N[C@@H](Cc2c[nH]c3ccccc23)C(=O)O)CCCC1` (stereo partly drawn) [Example 3C]: 7.26; `O=C(NC(Cc1ccc(C(=O)O)cc1)P(=O)(O)CC1(C(=O)N[C@@H](Cc2c[nH]c3ccccc23)C(=O)O)CCCC1)OCc1ccccc1` (stereo partly drawn) [Example 8B]: 6.31; `NC(=O)c1ccc(CC(NC(=O)OCc2ccccc2)P(=O)(O)CC2(C(=O)N[C@@H](Cc3c[nH]c4ccccc34)C(=O)O)CCCC2)cc1` (stereo partly drawn) [Example 8A]: 6.54. `CC(C)CC(CP(=O)(O)C(CC(C)C)NC(=O)[C@H](CCCCNC(=O)OCc1ccccc1)NS(C)(=O)=O)C(=O)N[C@@H](Cc1c[nH]c2ccccc12)C(=O)O` (single isomer, unassigned) [Example 10A]: the pIC50 was 7.40. Same read-out and setting: next, `O=C(N[C@@H](Cc1ccccc1)P(=O)(O)CC1(C(=O)N[C@@H](Cc2c[nH]c3ccccc23)C(=O)O)CCCC1)c1ccccc1` [Example 6.2B]: 6.60; `CC(C)CC(CP(=O)(O)C(Cc1ccc2ccccc2c1)NC(=O)[C@H](CCCCNC(=O)OCc1ccccc1)NS(C)(=O)=O)C(=O)N[C@@H](Cc1c[nH]c2ccccc12)C(=O)O` (single isomer, unassigned) [Example 9A]: 7.19; `O=C(NC(Cc1ccc(C(=O)N2CCOCC2)cc1)P(=O)(O)CC1(C(=O)N[C@@H](Cc2c[nH]c3ccccc23)C(=O)O)CCCC1)OCc1ccccc1` (stereo partly drawn) [Example 7]: 7.30. Take `CC(C)CC(NC(=O)[C@H](CCCCNC(=O)OCc1ccccc1)NS(C)(=O)=O)P(=O)(O)CC1(C(=O)N[C@@H](Cc2c[nH]c3ccccc23)C(=O)O)CCCC1` (stereo partly drawn) [Example 3D]: the pIC50 was 7.26.

The assay is the same for the next values; noted with them: L-GPLGM, table of additional compounds, read-out: IC50 (in vitro ECE inhibition activity).
Consider `CCC(C)C(N)C(=O)NC(Cc1ccccc1)P(=O)(O)CC(C(=O)N[C@@H](Cc1c[nH]c2ccccc12)C(=O)O)C(C)C` (stereo partly drawn), for which the pIC50 is 5.80. On to `CC(C)CC(CP(=O)(O)C(CC1CCCC1)NC(=O)OCc1ccccc1)C(=O)N[C@@H](Cc1c[nH]c2ccccc12)C(=O)O` (stereo partly drawn) [Cbz, cyclopentylmethyl, H, iso-butyl], for which the pIC50 is 6.00. Still for that read-out and setting: under `CC(C)CC(CP(=O)(O)C(Cc1ccc2ccccc2c1)NC(=O)C(CCCCN)NS(C)(=O)=O)C(=O)N[C@@H](Cc1c[nH]c2ccccc12)C(=O)O` (single isomer, unassigned) [listing 1 of 2 here] stands 7.57; under `CC(C)CC(CP(=O)(O)C(Cc1ccc2ccccc2c1)NC(=O)C(CCCCNC(=O)OCc1ccccc1)NC(=O)C(CC(C)C)NS(C)(=O)=O)C(=O)N[C@@H](Cc1c[nH]c2ccccc12)C(=O)O` (stereo partly drawn), 6.64. `CC(C)CC(CP(=O)(O)C(CC(C)C)NC(=O)C(CCCCNC(=O)OCc1ccccc1)NS(C)(=O)=O)C(=O)N[C@@H](Cc1c[nH]c2ccccc12)C(=O)O` (stereo partly drawn): the pIC50 is 5.85. The same measure, in the same setting: under `CC(C)C(CP(=O)(O)C(Cc1ccccc1)NC(=O)C(CCCCNC(=O)OCc1ccccc1)NS(C)(=O)=O)C(=O)N[C@@H](Cc1c[nH]c2ccccc12)C(=O)O` (single isomer, unassigned) stands 6.41; under `CC(C)CC(CP(=O)(O)C(Cc1ccc2ccccc2c1)NC(=O)C(CCCCN)NS(C)(=O)=O)C(=O)N[C@@H](Cc1c[nH]c2ccccc12)C(=O)O` (single isomer, unassigned) [listing 2 of 2 here], 7.22; under `CC(C)CC(CP(=O)(O)C(CCCCN)NC(=O)OCc1ccccc1)C(=O)N[C@@H](Cc1c[nH]c2ccccc12)C(=O)O` (stereo partly drawn) [Cbz, NH 2(CH2)4, H, iso-butyl], 6.40.
